From ChEMBL document CHEMBL2434821, “New phenstatin-fatty acid conjugates: synthesis and evaluation” (Bioorg Med Chem Lett, 2013) come the findings set out here.

The assay in a line: Cytotoxicity against human KB-3-1 cells assessed as cell survival at 0.5 uM after 72 hrs by MTT assay relative to control. The following applies: KB 3-1, 72 h. Background: Tetrazolium assays rely on reduction of a dye to a coloured formazan, in cell work by metabolically active cells.

For the molecule `CCCCC/C=C\C/C=C\CCCCCCCC(=O)Oc1cc(C(=O)c2cc(OC)c(OC)c(OC)c2)ccc1OC`, the cell survival at 0.5 µM came out at 20%.
